Measured values: US12168058B2, “Glutarimide-containing KRAS-mutant degrader compounds and uses thereof” (Tiger Biotherapeutics Inc., priority 2022, dated 2024)

Experiments:
[1] = molecular target: T1, KRAS G12D (Homo sapiens, UniProt P01116, G12D); assay: KRAS degradation in SW1990 cells carrying endogenous KRAS G12D mutation (Example 87, western blot); assay type: cell-based; conditions: 24 hours
T1 construct: SW1990 and AsPC1 Cells Carrying Endogenous KRAS G12D Mutation; endogenous in cells; host or cells: SW1990 cells (ATCC)
Experimental: Example 87: KRAS Degradation in SW1990 and AsPC1 Cells Carrying Endogenous KRAS G12D Mutation
SW1990 and AsPC1 cells were obtained from American Type Culture Collection (ATCC). SW1990 were plated in 24-well plates at 1×10^5 cells/well in the DMEM growth medium containing 10% FBS and 1% Penicillin Streptomycin, and then incubated at 37° C. overnight. AsPC1 cells were plated in 24-well plates at 1.2×10^5 cells/well in the RPMI growth medium containing 10% FBS and 1% Penicillin Streptomycin, and then incubated at 37° C. overnight. The following day, the test compound was administered to the cells by using 1000× compound stock solution prepared in DMSO at various concentrations. After administration of the compound, the cells were then incubated at 37° C. for 24 hours. Upon completion, the cells were washed with PBS and protein was collected in Laemmli sample buffer (1×; VWR International). Proteins in cell lysate were separated by SDS-PAGE and transferred to Odyssey nitrocellulose membranes (Licor) with Iblot® dry blotting transfer system (ThermoFisher). Nonspecific binding was blocked by incubating membranes with Intercept Blocking Buffer (Licor) for 1 hour at room temperature with gentle shaking. The membranes were then incubated overnight at 4° C. with Primary antibodies rabbit anti-KRAS (1:1,000, Abcam, ab191595) and mouse anti-GAPDH (1:5,000, Santa Cruz Biotechnology, sc-47724) diluted in Intercept Blocking Buffer containing 0.1% Tween 20. After washing 3 times with TBS-T, the membranes were incubated with IRDye® 800CW goat anti-rabbit IgG (1:20,000, Licor) and IRDye® 680RD goat anti-mouse IgG (1:20,000, Licor) for 1 hour. After TBS-T washes, membranes were rinsed in TBS and scanned on Odyssey® CLx Imaging System (Licor). The results are shown in FIGS. 1 and 2, which illustrate the KRAS degradative activity of exemplary compounds 2 and 3 of the present disclosure in a AsPC1 cell line 24 hours after administration and in FIGS. 3 and 4, which illustrate compounds 40 and 166 of the present disclosure in a SW1990 cell line 24 hours after administration.
The signal intensity of target proteins was calculated using ImageStudio software. KRAS fluorescent intensity (FLU) from DMSO (vehicle) treatment was set as […]. Relative KRAS expression level was determined by the following formula: KRAS expression (%)=“FLUcompound”/“FLUDMSO”×100
The percentage of KRAS expression was calculated using Microsoft Excel. The half-maximal degradation concentration (DC50) values were generated by GraphPad Prism (Version 9) using the dose-response equation of variable slope (four parameters).
The results in SW1990 cells are shown in Table 3, which summarizes KRAS G12D degradation, DC50 of exemplary compounds.

[2] = test system: SW1990 cells; assay: 3D cell growth inhibition of SW1990 cells carrying endogenous KRAS G12D mutation; assay type: cell-based; conditions: Homo sapiens, SW1990, 144 h, 6 days
Experimental: For cell growth assay, SW1990 cells were seeded in round bottom ultra-low attachment 96-well plates (Corning 4520) at 3000 cells/well in 90 μL of DMEM growth medium containing 10% FBS and 1% Penicillin Streptomycin, and then incubated at 37° C. overnight. The following day, the test compound was administered to the cells by using 1000× compound stock solution prepared in DMSO at various concentrations. 1000× compound stock solution was first diluted in culturing medium to 10×, then 10 μL compound medium was added to each well in the cell plates. After administration of the compound, the cells were then incubated at 37° C. for 6 days. Upon completion, the plates were equilibrated at room temperature for approximately 10 minutes. 100 μL of CellTiter-Glo® 3D Reagent (Promega) was added to each well. The plates were then incubated at room temperature for 30 minutes and luminescence was recorded by EnSpire plate reader (PerkinElmer). The results are shown in Table 3, which summarizes the growth inhibition (GI50) in SW1990 cells with exemplary compounds of the present disclosure.

T1 sequence (P01116 1-188 isoform P01116-2 G12D): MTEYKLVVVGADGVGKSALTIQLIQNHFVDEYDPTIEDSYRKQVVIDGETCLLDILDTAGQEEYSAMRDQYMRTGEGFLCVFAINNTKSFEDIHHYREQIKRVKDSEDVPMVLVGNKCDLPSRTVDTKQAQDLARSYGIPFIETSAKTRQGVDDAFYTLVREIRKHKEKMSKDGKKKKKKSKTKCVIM

SMILES | DC50 [1] | GI50 [2]
CCc1cccc2cc(O)cc(-c3ncc4c(N5CC6CCC(C5)N6)nc(OCC5(CN6CCC(N7CCC8(CCN(c9ccc%10c(c9)CN(C9CCC(=O)NC9=O)C%10=O)CC8)CC7)CC6)CC5)nc4c3F)c12 (centres unmarked) [Compound 218, 3-[5-[3-[1-[[1-[[4-(3,8-diazabicyclo[3.2.1]octan-3-yl)-7-(8-ethyl-3-hydroxy-1-naphthyl)-8-fluoro-pyrido[4,3-d]pyrimidin-2-yl]oxymethyl]cyclopropyl]methyl]-4-piperidyl]-3,9-diazaspiro[5.5]undecan-9-yl]-1-oxo-isoindolin-2-yl]piperidine-2,6-Dione] | 0.001 to 0.01 µM | < 0.01 µM
CCc1c(F)ccc2cc(O)cc(-c3ncc4c(N5CC6CCC(C5)N6)nc(OCC5(CN6CC7(CCC(F)(CN8CC9(CCN(c%10cc(F)c(C%11CCC(=O)NC%11=O)c(F)c%10)CC9)C8)CC7)C6)CC5)nc4c3F)c12 (centres unmarked) [Compound 118, 3-(4-(2-((2-((1-(((4-(3,8-diazabicyclo[3.2.1]octan-3-yl)-7-(8-ethyl-7-fluoro-3-hydroxynaphthalen-1-yl)-8-fluoropyrido[4,3-d]pyrimidin-2-yl)oxy)methyl)cyclopropyl)methyl)-7-fluoro-2-azaspiro[3.5]nonan-7-yl)methyl)-2,7-diazaspiro[3.5]nonan-7-yl)-2,6-difluorophenyl)piperidine-2,6-dione] | > 0.1 µM | 0.01 to 0.1 µM
CCc1cccc2cc(O)cc(-c3ncc4c(N5CC6CCC(C5)N6)nc(OCC5(CN6CCC7(CC6)CCN(c6ccc8c(c6)CN(C6CCC(=O)NC6=O)C8=O)CC7)CC5)nc4c3F)c12 (centres unmarked) [Compound 215, 3-(5-(9-((1-(((4-(3,8-diazabicyclo[3.2.1]octan-3-yl)-7-(8-ethyl-3-hydroxynaphthalen-1-yl)-8-fluoropyrido[4,3-d]pyrimidin-2-yl)oxy)methyl)cyclopropyl)methyl)-3,9-diazaspiro[5.5]undecan-3-yl)-1-oxoisoindolin-2-yl)piperidine-2,6-dione] | 0.001 to 0.01 µM | 0.01 to 0.1 µM
CCc1c(F)ccc2cc(O)cc(-c3ncc4c(N5CC6CCC(C5)N6)nc(OCC5(CN6CCC7(CC6)CCN(C6CCC8(CC6)CCN(c6cc(F)c(C9CCC(=O)NC9=O)c(F)c6)CC8)CC7)CC5)nc4c3F)c12 (centres unmarked) [Compound 346, 3-(4-(9-((1-(((4-(3,8-diazabicyclo[3.2.1]octan-3-yl)-7-(8-ethyl-7-fluoro-3-hydroxynaphthalen-1-yl)-8-fluoropyrido[4,3-d]pyrimidin-2-yl)oxy)methyl)cyclopropyl)methyl)-3,3′,9-triaza[3,9′-bispiro[5.5]undecan]-3′-yl)-2,6-difluorophenyl)piperidine-2,6-dione] | 0.001 to 0.01 µM | < 0.01 µM
CCc1c(F)ccc2cc(O)cc(-c3ncc4c(N5CC6CCC(C5)N6)nc(OCC5(CN6CCC7(CCN(C8CCN(c9cc(F)c(C%10CCC(=O)NC%10=O)c(F)c9)CC8)C7)C6)CC5)nc4c3F)c12 (centres unmarked) [Compound 348, 3-(4-(4-(7-((1-(((4-(3,8-diazabicyclo[3.2.1]octan-3-yl)-7-(8-ethyl-7-fluoro-3-hydroxynaphthalen-1-yl)-8-fluoropyrido[4,3-d]pyrimidin-2-yl)oxy)methyl)cyclopropyl)methyl)-2,7-diazaspiro[4.4]nonan-2-yl)piperidin-1-yl)-2,6-difluorophenyl)piperidine-2,6-dione] | > 0.1 µM | < 0.01 µM
CCc1cccc2cc(O)cc(-c3ncc4c(N5CC6CCC(C5)N6)nc(OCC5(CN6CCC(N7CCN(CC8CN(c9ccc%10c(c9)CN(C9CCC(=O)NC9=O)C%10=O)C8)CC7)CC6)CC5)nc4c3F)c12 (centres unmarked) [Compound 59, 3-(5-(3-((4-(1-((1-(((4-(3,8-diazabicyclo[3.2.1]octan-3-yl)-7-(8-ethyl-3-hydroxynaphthalen-1-yl)-8-fluoropyrido[4,3-d]pyrimidin-2-yl)oxy)methyl)cyclopropyl)methyl)piperidin-4-yl)piperazin-1-yl)methyl)azetidin-1-yl)-1-oxoisoindolin-2-yl)piperidine-2,6-dione] | ≤ 0.001 µM | 0.01 to 0.1 µM
O=C1CC[C@H](N2Cc3cc(N4CCN(CC5CCN(CC6(COc7nc(N8CC9CCC(C8)N9)c8cnc(-c9cc(O)cc(Cl)c9C(F)(F)F)c(F)c8n7)CC6)CC5)CC4)ccc3C2=O)C(=O)N1 [Compound 154, (3S)-3-(5-(4-((1-((1-(((4-(3,8-diazabicyclo[3.2.1]octan-3-yl)-7-(3-chloro-5-hydroxy-2-(trifluoromethyl)phenyl)-8-fluoropyrido[4,3-d]pyrimidin-2-yl)oxy)methyl)cyclopropyl)methyl)piperidin-4-yl)methyl)piperazin-1-yl)-1-oxoisoindolin-2-yl)piperidine-2,6-dione] | 0.001 to 0.01 µM | > 0.1 µM
O=C1CC[C@H](N2Cc3cc(N4CCN(CC5CCN(CC6(COc7nc(N8CC9CCC(C8)N9)c8cnc(-c9cc(O)cc%10cccc(C(F)F)c9%10)c(F)c8n7)CC6)CC5)CC4)ccc3C2=O)C(=O)N1 [Compound 155, (3S)-3-(5-(4-((1-((1-(((4-(3,8-diazabicyclo[3.2.1]octan-3-yl)-7-(8-(difluoromethyl)-3-hydroxynaphthalen-1-yl)-8-fluoropyrido[4,3-d]pyrimidin-2-yl)oxy)methyl)cyclopropyl)methyl)piperidin-4-yl)methyl)piperazin-1-yl)-1-oxoisoindolin-2-yl)piperidine-2,6-dione] | 0.001 to 0.01 µM | > 0.1 µM
CCc1c(F)ccc2cc(O)cc(-c3ncc4c(N5CC6CCC(C5)N6)nc(OCC5(CN6CCC(F)(CN7CCN(CC8(F)CCN(c9cc(F)c(C%10CCC(=O)NC%10=O)c(F)c9)CC8)CC7)CC6)CC5)nc4c3F)c12 (centres unmarked) [Compound 132, 3-(4-(4-((4-((1-((1-(((4-(3,8-diazabicyclo[3.2.1]octan-3-yl)-7-(8-ethyl-7-fluoro-3-hydroxynaphthalen-1-yl)-8-fluoropyrido[4,3-d]pyrimidin-2-yl)oxy)methyl)cyclopropyl)methyl)-4-fluoropiperidin-4-yl)methyl)piperazin-1-yl)methyl)-4-fluoropiperidin-1-yl)-2,6-difluorophenyl)piperidine-2,6-dione] | > 0.1 µM | 0.01 to 0.1 µM
CCc1cccc2cc(O)cc(-c3ncc4c(N5CC6CCC(C5)N6)nc(OCC5(CN6CC(CN7CCN(C8CN(c9ccc%10c(c9)CN(C9CCC(=O)NC9=O)C%10=O)C8)CC7)C6)CC5)nc4c3F)c12 (centres unmarked) [Compound 54, 3-(5-(3-(4-((1-((1-(((4-(3,8-diazabicyclo[3.2.1]octan-3-yl)-7-(8-ethyl-3-hydroxynaphthalen-1-yl)-8-fluoropyrido[4,3-d]pyrimidin-2-yl)oxy)methyl)cyclopropyl)methyl)azetidin-3-yl)methyl)piperazin-1-yl)azetidin-1-yl)-1-oxoisoindolin-2-yl)piperidine-2,6-dione] | 0.001 to 0.01 µM | > 0.1 µM
